Test results as given in US7786141B2 (Vertex Pharmaceuticals Incorporated, priority 2004, dated 2010).

Legend:
M4 muscarinic receptor = target: T1, M4 muscarinic receptor (Homo sapiens, UniProt P08173); assay: Functional mobilization of intracellular calcium (FLIPR) in M4-CHO cells; assay type: cell-based; conditions: Table 4; for Emax: 100% efficacy is the maximum response obtained with the Carbachol control
T1 construct: expressed in transfected cells; host or cells: CHO (M4-CHO)
T1 sequence (P08173 1-479): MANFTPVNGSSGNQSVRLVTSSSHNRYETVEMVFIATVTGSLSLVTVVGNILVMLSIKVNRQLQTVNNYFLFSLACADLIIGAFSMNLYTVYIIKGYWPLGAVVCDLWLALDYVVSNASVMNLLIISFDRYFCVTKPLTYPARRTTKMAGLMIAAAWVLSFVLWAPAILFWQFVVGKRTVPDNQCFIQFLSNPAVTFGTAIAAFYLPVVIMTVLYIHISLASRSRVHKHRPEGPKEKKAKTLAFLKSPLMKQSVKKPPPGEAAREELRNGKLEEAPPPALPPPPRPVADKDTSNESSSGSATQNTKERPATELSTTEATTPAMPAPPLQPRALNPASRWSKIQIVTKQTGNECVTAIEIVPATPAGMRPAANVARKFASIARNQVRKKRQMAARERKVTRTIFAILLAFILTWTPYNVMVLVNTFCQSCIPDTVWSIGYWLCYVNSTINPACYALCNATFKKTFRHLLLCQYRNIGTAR
Method in brief: (§1)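 FLIPR Ca2+ read, ex 488/em 540 nm, 60 s. Recombinant CHO lines (M1 or M4), dye-loaded Fluo-3 AM 60-90 min at 37° C, probenecid 1 mM, pH 7.4. Agonist: compound alone; inhibition: 15 min compound pre-incubation, then carbachol at EC80 for that subtype.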

M1 muscarinic receptor = target: T2, M1 muscarinic receptor (Homo sapiens, UniProt P11229); assay: Functional mobilization of intracellular calcium (FLIPR) in M1-CHO cells; assay type: cell-based; conditions: Table 4; for Emax: 100% efficacy is the maximum response obtained with the Carbachol control
T2 construct: expressed in transfected cells; host or cells: CHO (M1-CHO)
T2 sequence (P11229 1-460): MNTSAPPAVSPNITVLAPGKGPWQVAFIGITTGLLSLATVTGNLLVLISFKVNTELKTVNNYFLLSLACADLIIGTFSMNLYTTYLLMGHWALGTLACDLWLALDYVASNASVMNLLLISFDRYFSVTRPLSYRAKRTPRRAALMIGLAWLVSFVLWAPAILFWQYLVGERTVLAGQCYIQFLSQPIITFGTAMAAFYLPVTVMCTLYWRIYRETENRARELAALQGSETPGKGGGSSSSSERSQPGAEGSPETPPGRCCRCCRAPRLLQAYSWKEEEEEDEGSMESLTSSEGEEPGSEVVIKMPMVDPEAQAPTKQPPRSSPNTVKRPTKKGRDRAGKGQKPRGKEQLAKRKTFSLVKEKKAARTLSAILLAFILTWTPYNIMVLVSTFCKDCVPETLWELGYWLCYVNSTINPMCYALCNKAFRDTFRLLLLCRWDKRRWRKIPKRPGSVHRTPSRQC
Method in brief: as §1

[1] = M4 receptor, calcium mobilization (FLIPR)
[2] = M1 receptor, calcium mobilization (FLIPR)

| SMILES | Emax (M4 muscarinic receptor) [%] | M4 Activity (M4 muscarinic receptor; modulating M4 receptor) | Emax (M1 muscarinic receptor) [%] | M1 Activity (M1 muscarinic receptor; modulating M1 receptor) | M4 Activity (M4 muscarinic receptor; [1]) | M1 Activity (M1 muscarinic receptor; [2]) |
| --- | --- | --- | --- | --- | --- | --- |
| CCOC(=O)N1CCC(N2CCC3(CC2)CC(=O)c2cc(C)ccc23)CC1 [compound 783] | 25 to 100 | xx (activity was measured to be between 2.0 μM and 5.0 μM) | 25 to 100 | xxx (activity was measured to be less than 2.0 μM) | – | – |
| CC(=O)N[C@H]1CC2(CCN(CCC3=C(C)CCCC3(C)C)CC2)c2ccccc21 [compound 784] | < 25 | x (activity was measured to be greater than 5.0 μM) | < 25 | x (activity was measured to be greater than 5.0 μM) | – | – |
| CCOC(=O)N1CCC(CN2CCC3(CC2)CN(C(C)=O)c2c(C)cccc23)CC1 [compound 785] | 25 to 100 | xxx (activity was measured to be less than 2.0 μM) | 25 to 100 | xx (activity was measured to be between 2.0 μM and 5.0 μM) | – | – |
| O=C1CC2(CCN([C@@H]3C[C@@H]4CC[C@@H]3C4)CC2)c2cc(Cl)ccc21 [compound 787] | 25 to 100 | xxx (activity was measured to be less than 2.0 μM) | 25 to 100 | xxx (activity was measured to be less than 2.0 μM) | – | – |
| Clc1ccc2c(c1)C1(CCN(CC3CC4C=CC3C4)CC1)C[C@@H]2NCC1CC2C=CC1C2 (some centres unmarked) [compound 788] | 25 to 100 | xx (activity was measured to be between 2.0 μM and 5.0 μM) | 25 to 100 | xx (activity was measured to be between 2.0 μM and 5.0 μM) | – | – |
| CN(C)C(=O)N[C@H]1CCC2(CCN([C@@H]3C[C@@H]4CC[C@H]3C4)CC2)c2ccccc21 [compound 789] | 25 to 100 | x (activity was measured to be greater than 5.0 μM) | 25 to 100 | x (activity was measured to be greater than 5.0 μM) | – | – |
| CN(C)C(=O)N1CC2(CCN(C3CCN(c4ncccn4)CC3)CC2)c2cc(F)ccc21 [compound 790] | 25 to 100 | xxx (activity was measured to be less than 2.0 μM) | 25 to 100 | xx (activity was measured to be between 2.0 μM and 5.0 μM) | – | – |
| CN(C)C(=O)N1CC2(CCN(C3CCN(C(=O)c4ccncc4)CC3)CC2)c2cc(F)ccc21 [compound 791] | < 25 | x (activity was measured to be greater than 5.0 μM) | 25 to 100 | xx (activity was measured to be between 2.0 μM and 5.0 μM) | – | – |
| CC(=O)N[C@H]1CC2(CCN(CC(=O)N3CCCCC3)CC2)c2ccccc21 [compound 792] | 25 to 100 | x (activity was measured to be greater than 5.0 μM) | 25 to 100 | x (activity was measured to be greater than 5.0 μM) | – | – |
| CCC#CCOC(=O)N1CC[C@@H](CN2CCC3(CC2)CN(C(C)=O)c2cccc(C)c23)C1 [compound 793] | 25 to 100 | xxx (activity was measured to be less than 2.0 μM) | 25 to 100 | xxx (activity was measured to be less than 2.0 μM) | – | – |
| CC(=O)N1CC2(CCN(C3CCN(c4ncc(C)s4)CC3)CC2)c2ccccc21 [compound 794] | < 25 | x (activity was measured to be greater than 5.0 μM) | < 25 | x (activity was measured to be greater than 5.0 μM) | – | – |
| CN(C)C(=O)N1CC2(CCN(C3CCN(C(=O)c4cccnc4)CC3)CC2)c2cc(F)ccc21 [compound 795] | < 25 | x (activity was measured to be greater than 5.0 μM) | < 25 | xx (activity was measured to be between 2.0 μM and 5.0 μM) | – | – |
| CC(=O)CN1CC2(CCN(C3CCCCC3)CC2)c2cc(F)ccc21 [compound 796] | 25 to 100 | xxx (activity was measured to be less than 2.0 μM) | 25 to 100 | xxx (activity was measured to be less than 2.0 μM) | – | – |
| CCCC(=O)N[C@H]1CC2(CCN(CC3CCCCC3)CC2)c2ccccc21 [compound 797] | 25 to 100 | xxx (activity was measured to be less than 2.0 μM) | 25 to 100 | x (activity was measured to be greater than 5.0 μM) | – | – |
| O=C(N[C@H]1CC2(CCN(CCC3CC4CC[C@@H]3C4)CC2)c2ccccc21)c1ccoc1 (some centres unmarked) [compound 798] | < 25 | x (activity was measured to be greater than 5.0 μM) | < 25 | x (activity was measured to be greater than 5.0 μM) | – | – |
| CCOC(=O)N1CCC(N2CCC3(CC2)CN(C(C)=O)c2c(-c4ccccc4OC)cccc23)CC1 [compound 799] | < 25 | x (activity was measured to be greater than 5.0 μM) | < 25 | x (activity was measured to be greater than 5.0 μM) | – | – |
| CCOC(=O)N1CCC(N2CCC3(CC2)CN(CC(=O)N(C)C)c2ccc(F)cc23)CC1 [compound 800] | 25 to 100 | xxx (activity was measured to be less than 2.0 μM) | 25 to 100 | xxx (activity was measured to be less than 2.0 μM) | – | – |
| O=C(N[C@H]1CC2(CCN(C3CCCCC3)CC2)c2ccccc21)c1ccoc1 [compound 801] | < 25 | x (activity was measured to be greater than 5.0 μM) | < 25 | x (activity was measured to be greater than 5.0 μM) | – | – |
| c1ccc2c(c1)CCCC21CCN(CC2CCCCC2)CC1 [compound 802] | 25 to 100 | – | 25 to 100 | – | – | – |
| O=C(O)C1CC2(CCN(CC3CCCCC3)CC2)c2ccccc21 (centres unmarked) [compound 803] | < 25 | – | < 25 | – | x (activity was measured to be greater than 5.0 μM) | x (activity was measured to be greater than 5.0 μM) |
| Cc1cc(C(=O)N2CCC(N3CCC4(CC3)CN(C(=O)N(C)C)c3ccc(F)cc34)CC2)no1 [compound 804] | < 25 | – | < 25 | – | x (activity was measured to be greater than 5.0 μM) | x (activity was measured to be greater than 5.0 μM) |
| CC(CF)OC(=O)N1CC[C@@H](CN2CCC3(CC2)CN(C(=O)N(C)C)c2ccc(F)cc23)C1 (some centres unmarked) [compound 805] | 25 to 100 | – | 25 to 100 | – | xxx (activity was measured to be less than 2.0 μM) | xxx (activity was measured to be less than 2.0 μM) |
| CC(=O)N[C@H]1CC2(CCN(CC(=O)N(C)C3CCN(C)CC3)CC2)c2ccccc21 [compound 806] | < 25 | – | < 25 | – | x (activity was measured to be greater than 5.0 μM) | x (activity was measured to be greater than 5.0 μM) |
| COC(=O)N1CC[C@H](CN2CCC3(CC2)CN(C(=O)N(C)C)c2ccc(F)cc23)C1 [compound 807] | 25 to 100 | – | 25 to 100 | – | xxx (activity was measured to be less than 2.0 μM) | xxx (activity was measured to be less than 2.0 μM) |
| CCOC(=O)N1CCC(N2CCC3(CC2)CN(c2ccc(F)cc2)c2ccc(F)cc23)CC1 [compound 808] | 25 to 100 | – | 25 to 100 | – | xxx (activity was measured to be less than 2.0 μM) | xxx (activity was measured to be less than 2.0 μM) |
| CCOC(=O)N1C2CCC1CC(N1CCC3(CC[C@H](NS(C)(=O)=O)c4ccccc43)CC1)C2 (some centres unmarked) [compound 809] | 25 to 100 | – | 25 to 100 | – | xxx (activity was measured to be less than 2.0 μM) | xxx (activity was measured to be less than 2.0 μM) |
| CCOC(=O)N1C2CCC1CC(N1CCC3(CC[C@H](NC(C)=O)c4ccccc43)CC1)C2 (some centres unmarked) [compound 810] | 25 to 100 | – | 25 to 100 | – | xxx (activity was measured to be less than 2.0 μM) | xxx (activity was measured to be less than 2.0 μM) |
| CN(C)C(=O)N1CC2(CCN(C3CCN(C(=O)c4ccsc4)CC3)CC2)c2cc(F)ccc21 [compound 812] | < 25 | – | 25 to 100 | – | x (activity was measured to be greater than 5.0 μM) | xx (activity was measured to be between 2.0 μM and 5.0 μM) |
